# Experimental data published in patent publication US4593090A, “Novel nitrosourea compounds, method for preparing same, and pharmaceutical composition containing same” (Gogo Kimura, priority 1981, dated 1986).
# Columns and labels:
# [1] = Acute toxicity (LD50, Behrens-Karber method); assay type: in vivo, ICR mice; conditions: ip, mortality during 30 days; for LD50 at 720 h: mouse, in vivo
# Protocol: Test compounds, dissolved or suspended in 0.5% aqueous CMC, were each intraperitoneally administered to ICR mice in a dose of 0.1 ml per 10 g body weight. LD50 (mg/kg) value of each test compound was calculated from the mortality of mice during 30 days by the Behrens-Karber method.
# Leukemia L1210 = assay: Activity against Leukemia L1210, intraperitoneal, increase in life span of mice; assay type: in vivo, female mice (BDF1 family); conditions: for ED (maximum ILS) / ED30: Mus musculus, L1210, ip; for ED (maximum ILS): read-out: O.D. (optimum dosage); for ED30: read-out: ILS30; for Survivors after 60 days / Max. ILS % / Therapeutic ratio TR: ip; for Survivors after 60 days: 6-membered group; for Max. ILS %: 60-day observation, versus control; for Therapeutic ratio TR: O.D./ILS30
# Protocol: Tests were conducted in accordance with the method for measuring antitumor activity of National Cancer Center Tokyo (A, Hoshi et al, Farumashia 9 464 (1973)). Test compounds were each intraperitoneally (referred to as ip) or orally (referred to as op) administered once a day for 5 successive days to a 6-membered group of femal mice (BDF1 family, each weighing 20 to 23 g) 24 hours after 1×10^5 cells of Leukemia L1210 have been implantated into the abdominal cavities of the mice, and the effect was evaluated by comparing the survival days of treated groups with those of an untreated group of mice (control group) in 60-day observation. An increase percentage of life span (ILS%) was calculated from said average survival days compared with those of the control group. Further, therapeutic ratio (O.D./ILD30, referred to as T.R.) of each tested compound was calculated from the daily dosage of the compound necessary to increase said average survival days by 30% as compared with the control group (this dosage is referred to as ILS 30) and the daily dosage giving a maximum increase of life span to mice implantated with L1210 cells, namely an optimum dosage (referred to as O.D.). The results of five successive days intraperitoneal administrations of test compounds were shown in Tables I to III, and those of five successive oral administrations in Table IV.
# [2] = ip once a day for 5 successive days, daily dosage giving maximum increase of life span
# [3] = ip once a day for 5 successive days, daily dosage increasing average survival days by 30%
structure (smiles),measurement,setting,value
"CCCCCCCCCCN(C[C@H]1O[C@H](OCCCC)[C@H](O)[C@@H](O)[C@@H]1O)C(=O)N(CCCl)N=O [Compound 8, 3-n-decyl-3-(n-butyl α-D-glucopyranose-6-yl)-1-(2-chloroethyl)-1-nitrosourea]",LD50 at 720 h,[1],315 mg/kg
same,ED (maximum ILS),Leukemia L1210; [2],100 mg/kg
same,ED30,Leukemia L1210; [3],4.46 mg/kg
same,Survivors after 60 days,Leukemia L1210,3/6
same,Max. ILS %,Leukemia L1210,> 450%
same,Therapeutic ratio TR,Leukemia L1210,22.4
"CCCCO[C@H]1O[C@H](CN(CC(C)C)C(=O)N(CCCl)N=O)[C@@H](O)[C@H](O)[C@H]1O [Compound 9, 3-isobutyl-3-(n-butyl α-D-glucopyranose-6-yl)-1-(2-chloroethyl)-1-nitrosourea]",LD50 at 720 h,[1],440 mg/kg
same,ED (maximum ILS),Leukemia L1210; [2],150 mg/kg
same,ED30,Leukemia L1210; [3],3.33 mg/kg
same,Survivors after 60 days,Leukemia L1210,6/6
same,Max. ILS %,Leukemia L1210,> 700%
same,Therapeutic ratio TR,Leukemia L1210,45.0
"CC(C)CO[C@H]1O[C@H](CN(C(=O)N(CCCl)N=O)C(C)C)[C@@H](O)[C@H](O)[C@H]1O [Compound 13, 3-isopropyl-3-(isobutyl α-D-glucopyranose-6-yl)-1-(2-chloroethyl)-1-nitrosourea]",LD50 at 720 h,[1],375 mg/kg
same,ED (maximum ILS),Leukemia L1210; [2],120 mg/kg
same,ED30,Leukemia L1210; [3],2.77 mg/kg
same,Survivors after 60 days,Leukemia L1210,6/6
same,Max. ILS %,Leukemia L1210,> 700%
same,Therapeutic ratio TR,Leukemia L1210,43.3
"CC(C)CO[C@H]1O[C@H](CN(CC(C)C)C(=O)N(CCCl)N=O)[C@@H](O)[C@H](O)[C@H]1O [Compound 14, 3-isobutyl-3-(isobutyl α-D-glucopyranose-6-yl)-1-(2-chloroethyl)-1-nitrosourea]",LD50 at 720 h,[1],510 mg/kg
same,ED (maximum ILS),Leukemia L1210; [2],170 mg/kg
same,ED30,Leukemia L1210; [3],3.32 mg/kg
same,Survivors after 60 days,Leukemia L1210,6/6
same,Max. ILS %,Leukemia L1210,> 700%
same,Therapeutic ratio TR,Leukemia L1210,51.2
"CCC(C)O[C@H]1O[C@H](CN(CC(C)C)C(=O)N(CCCl)N=O)[C@@H](O)[C@H](O)[C@H]1O (stereo partly drawn) [Compound 17, 3-isobutyl-3-(sec-butyl α-D-glucopyranose-6-yl)-1-(2-chloroethyl)-1-nitrosourea]",LD50 at 720 h,[1],510 mg/kg
same,ED (maximum ILS),Leukemia L1210; [2],170 mg/kg
same,ED30,Leukemia L1210; [3],3.55 mg/kg
same,Survivors after 60 days,Leukemia L1210,6/6
same,Max. ILS %,Leukemia L1210,> 700%
same,Therapeutic ratio TR,Leukemia L1210,47.9
"C=C(C)CN(C[C@H]1O[C@H](OC(C)CC)[C@H](O)[C@@H](O)[C@@H]1O)C(=O)N(CCCl)N=O (stereo partly drawn) [Compound 18, 3-(2-methyl-2-propenyl)-3-(sec-butyl α-D-glucopyranose-6-yl)-1-(2-chloroethyl)-1-nitrosourea]",LD50 at 720 h,[1],515 mg/kg
same,ED (maximum ILS),Leukemia L1210; [2],170 mg/kg
same,ED30,Leukemia L1210; [3],3.92 mg/kg
same,Survivors after 60 days,Leukemia L1210,6/6
same,Max. ILS %,Leukemia L1210,> 700%
same,Therapeutic ratio TR,Leukemia L1210,43.4
"COc1ccc(CN(C[C@H]2O[C@H](OCC(C)C)[C@H](O)[C@@H](O)[C@@H]2O)C(=O)N(CCCl)N=O)cc1 [Compound 21, 3-(p-methoxybenzyl)-3-(isobutyl α-D-glucopyranose-6-yl)-1-(2-chloroethyl)-1-nitrosourea]",LD50 at 720 h,[1],585 mg/kg
same,ED (maximum ILS),Leukemia L1210; [2],200 mg/kg
same,ED30,Leukemia L1210; [3],5.45 mg/kg
same,Survivors after 60 days,Leukemia L1210,3/6
same,Max. ILS %,Leukemia L1210,> 360%
same,Therapeutic ratio TR,Leukemia L1210,36.7
"CC(C)CO[C@H]1O[C@H](CN(Cc2ccccc2)C(=O)N(CCCl)N=O)[C@@H](O)[C@H](O)[C@H]1O [Compound 22, 3-benzyl-3-(isobutyl α-D-glucopyranose-6-yl)-1-(2-chloroethyl)-1-nitrosourea]",LD50 at 720 h,[1],510 mg/kg
same,ED (maximum ILS),Leukemia L1210; [2],170 mg/kg
same,ED30,Leukemia L1210; [3],4.45 mg/kg
same,Survivors after 60 days,Leukemia L1210,3/6
same,Max. ILS %,Leukemia L1210,> 350%
same,Therapeutic ratio TR,Leukemia L1210,38.2
"CC(C)CO[C@H]1O[C@H](CN(Cc2ccco2)C(=O)N(CCCl)N=O)[C@@H](O)[C@H](O)[C@H]1O [Compound 24, 3-furfuryl-3-(isobutyl α-D-glucopyranose-6-yl)-1-(2-chloroethyl)-1-nitrosourea]",LD50 at 720 h,[1],555 mg/kg
same,ED (maximum ILS),Leukemia L1210; [2],180 mg/kg
same,ED30,Leukemia L1210; [3],3.1 mg/kg
same,Survivors after 60 days,Leukemia L1210,5/6
same,Max. ILS %,Leukemia L1210,> 620%
same,Therapeutic ratio TR,Leukemia L1210,58.1
"CC(C)CCO[C@H]1O[C@H](CN(CC(C)C)C(=O)N(CCCl)N=O)[C@@H](O)[C@H](O)[C@H]1O [Compound 25, 3-isobutyl-3-(isopentyl α-D-glucopyranose-6-yl)-1-(2-chloroethyl)-1-nitrosourea]",LD50 at 720 h,[1],450 mg/kg
same,ED (maximum ILS),Leukemia L1210; [2],150 mg/kg
same,ED30,Leukemia L1210; [3],4.2 mg/kg
same,Survivors after 60 days,Leukemia L1210,6/6
same,Max. ILS %,Leukemia L1210,> 700%
same,Therapeutic ratio TR,Leukemia L1210,35.7
"CCCCCCO[C@H]1O[C@H](CN(CC(C)C)C(=O)N(CCCl)N=O)[C@@H](O)[C@H](O)[C@H]1O [Compound 26, 3-isobutyl-3-(n-hexyl α-D-glucopyranose-6-yl)-1-(2-chloroethyl)-1-nitrosourea]",LD50 at 720 h,[1],415 mg/kg
same,ED (maximum ILS),Leukemia L1210; [2],140 mg/kg
same,ED30,Leukemia L1210; [3],4.63 mg/kg
same,Survivors after 60 days,Leukemia L1210,3/6
same,Max. ILS %,Leukemia L1210,> 370%
same,Therapeutic ratio TR,Leukemia L1210,30.2
"CCCCCCO[C@H]1O[C@H](CN(C(=O)N(CCCl)N=O)C(C)COC)[C@@H](O)[C@H](O)[C@H]1O (stereo partly drawn) [Compound 27, 3-(1-methyl-2-methoxyethyl)-3-(n-hexyl α-D-glucopyranose-6-yl)-1-(2-chloroethyl)-1-nitrosourea]",LD50 at 720 h,[1],505 mg/kg
same,ED (maximum ILS),Leukemia L1210; [2],170 mg/kg
same,ED30,Leukemia L1210; [3],4.67 mg/kg
same,Survivors after 60 days,Leukemia L1210,5/6
same,Max. ILS %,Leukemia L1210,> 630%
same,Therapeutic ratio TR,Leukemia L1210,36.4
"CC(C)CN(C[C@H]1O[C@H](OC(C)(C)C)[C@H](O)[C@@H](O)[C@@H]1O)C(=O)N(CCCl)N=O [Compound 28, 3-isobutyl-3-(2-methyl-2-propyl α-D-glucopyranose-6-yl)-1-(2-chloroethyl)-1-nitrosourea]",LD50,[1],375 mg/kg
same,O.D. (optimum dosage),Leukemia L1210; [2],130 mg/kg
same,ILS30,Leukemia L1210; [3],3.00 mg/kg
same,Survivors after 60 days,Leukemia L1210,6/6
same,Max. ILS %,Leukemia L1210,> 700%
same,Therapeutic ratio TR,Leukemia L1210,43.2
"CC=CCO[C@H]1O[C@H](CN(CC(C)C)C(=O)N(CCCl)N=O)[C@@H](O)[C@H](O)[C@H]1O [Compound 29, 3-isobutyl-3-(2-butenyl α-D-glucopyranose-6-yl)-1-(2-chloroethyl)-1-nitrosourea]",LD50 at 720 h,[1],410 mg/kg
same,ED (maximum ILS),Leukemia L1210; [2],140 mg/kg
same,ED30,Leukemia L1210; [3],3.64 mg/kg
same,Survivors after 60 days,Leukemia L1210,5/6
same,Max. ILS %,Leukemia L1210,> 620%
same,Therapeutic ratio TR,Leukemia L1210,38.5
"CCOCCCO[C@H]1O[C@H](CN(CC(C)C)C(=O)N(CCCl)N=O)[C@@H](O)[C@H](O)[C@H]1O [Compound 32, 3-isobutyl-3-(3-ethoxy-n-propyl α-D-glucopyranose-6-yl)-1-(2-chloroethyl)-1-nitrosourea]",LD50 at 720 h,[1],495 mg/kg
same,ED (maximum ILS),Leukemia L1210; [2],170 mg/kg
same,ED30,Leukemia L1210; [3],2.91 mg/kg
same,Survivors after 60 days,Leukemia L1210,6/6
same,Max. ILS %,Leukemia L1210,> 700%
same,Therapeutic ratio TR,Leukemia L1210,58.4
"COCC(C)O[C@H]1O[C@H](CN(CC(C)C)C(=O)N(CCCl)N=O)[C@@H](O)[C@H](O)[C@H]1O (stereo partly drawn) [Compound 33, 3-isobutyl-3-(1-methyl-2-methoxyethyl α-D-glucopyranose-6-yl)-1-(2-chloroethyl)-1-nitrosourea]",LD50 at 720 h,[1],560 mg/kg
same,ED (maximum ILS),Leukemia L1210; [2],170 mg/kg
same,ED30,Leukemia L1210; [3],2.62 mg/kg
same,Survivors after 60 days,Leukemia L1210,6/6
same,Max. ILS %,Leukemia L1210,> 700%
same,Therapeutic ratio TR,Leukemia L1210,64.9
